Like-named read-outs stand apart in the source and are kept apart here.
Legend:
Blatta orientalis = conditions: Blatta orientalis; for synergizing effect on Azamethiphos: synergist applied with Azamethiphos; for synergizing effect on Cypermethrin: synergist applied with Cypermethrin
Description: Method: Contact test on non-porous tile measuring 400 cm^2 at a temperature of 28° C. Test duration: up to 72 hours after exposure of the insect to the insecticidal active substance.
(§1) Three tests were performed in parallel, A, B, and C, as follows: • A) Comparative. 1 ml of Composition 2 was applied to the tile. After waiting for the complete evaporation of the solvent, 10 cockroaches were placed on top of the treated tile, starting the test. • B) According to the invention. 1 ml of Composition 8b was distributed on the tile. After waiting for the complete evaporation of the solvent, 1 ml of Composition 2 was added to the same tile. Subsequently, after waiting for the solvent to evaporate, 10 cockroaches were placed on top of the treated tile, starting the test. • C) According to the invention. 1 ml of Composition 8b was distributed on a tile. After waiting for the complete evaporation of the solvent, 10 cockroaches were placed for 30 minutes on top of the treated tile. At the end of the 30 minutes, the cockroaches were transferred to an untreated area.
Method: Contact test on non-porous tile measuring 400 cm^2 at a temperature of 28° C. Test duration: up to 120 hours after exposure of the insect to the insecticidal active substance.
as §1, with “4a” for “2”, “8d” for “8b”, “After” for “Subsequently, after”
Six tests were performed in parallel, A, B, C, D, E and F, as follows: • A) Comparative. 1 ml of Composition 9b was distributed on the tile. After waiting for the complete evaporation of the solvent, 1 ml of Composition 4a was added to the same tile. Subsequently, after waiting for the solvent to evaporate, 10 cockroaches were placed on top of the treated tile, starting the test. • B) Comparative. 1 ml of Composition 9b was distributed on a tile. After waiting for the complete evaporation of the solvent, 10 cockroaches were placed for 30 minutes on top of the treated tile. At the end of the 30 minutes, the cockroaches were transferred to an untreated area. […] 1 ml of Composition 10b was distributed on the tile. After waiting for the complete evaporation of the solvent, 1 ml of Composition 4a was added to the same tile. Subsequently, after waiting for the solvent to evaporate, 10 cockroaches were placed on top of the treated tile, starting the test. • D) Comparative. 1 ml of Composition 10b was distributed on a tile. After waiting for the complete evaporation of the solvent, 10 cockroaches were placed for 30 minutes on top of the treated tile. At the end of the 30 minutes, the cockroaches were transferred to an untreated area. […] 1 ml of Composition 8d was distributed on the tile. After waiting for the complete evaporation of the solvent, 1 ml of Composition 4a was added to the same tile. Subsequently, after waiting for the solvent to evaporate, 10 cockroaches were placed on top of the treated tile, starting the test. • F) According to the invention. 1 ml of Composition 8d was distributed on a tile. After waiting for the complete evaporation of the solvent, 10 cockroaches were placed for 30 minutes on top of the treated tile. At the end of the 30 minutes, the cockroaches were transferred to an untreated area.

Blattella germanica = assay: Contact test on non-porous tile, Blattella germanica; assay type: in vivo; conditions: Blattella germanica; synergist applied with Imidacloprid
Description: 1 ml of Composition 36 was distributed on the tile. […] 1 ml of Composition 37 was distributed on a tile.

Compound	synergizing effect on Azamethiphos (Blatta orientalis)	synergizing effect on Cypermethrin (Blatta orientalis)	synergizing effect on Imidacloprid (Blattella germanica)	synergizing effect on Cypermethrin (Blatta orientalis; listed as oleic alcohol 95%)
CCCCCCCC/C=C\CCCCCCCCOC(C)=O [Oleyl acetate]	fine synergizing effect	excellent-fine synergizing effect	–	–
CCCCCCCCOC(=O)OCCCCCCCC [dioctyl carbonate]	good synergizing effect	synergizing effect	–	–
Oleic alcohol [Oleic alcohol 95%]	fine synergizing effect	fine synergizing effect	fine synergizing effect	superior to that shown with PBO

Reference: patent US20260215418A1, “HYDROCARBON ALCOHOLS AND THEIR DERIVATIVES AS SYNERGISTS IN PESTICIDE ACTIVITY” (priority 2022, published 2026)
